Data reported in the NIST ThermoML archive (doi:10.1016/j.jct.2006.08.002).

Experiment: xn = mol fraction of the nth substance listed
Conditions: Fluid (supercritical or subcritical phases), Constant-volume piezometry

CCO [ethanol] + O
Conditions	mass density [kg/m3]
553.15 K, 25720 kPa, x1 = 0.5	555.9
553.15 K, 47100 kPa, x1 = 0.5	614.98
558.15 K, 8310 kPa, x1 = 0.8	115
558.15 K, 10340 kPa, x1 = 0.8	188.54
558.15 K, 11380 kPa, x1 = 0.8	260.63
558.15 K, 11700 kPa, x1 = 0.8	283.97
558.15 K, 13990 kPa, x1 = 0.8	382.62
558.15 K, 15170 kPa, x1 = 0.8	405.66
563.15 K, 6360 kPa, x1 = 0.5	55.95
563.15 K, 7510 kPa, x1 = 0.5	69.25
563.15 K, 8400 kPa, x1 = 0.5	84.4
563.15 K, 8830 kPa, x1 = 0.2	67.68
563.15 K, 9900 kPa, x1 = 0.5	117.41
563.15 K, 11080 kPa, x1 = 0.5	171.24
563.15 K, 12360 kPa, x1 = 0.5	327.3
563.15 K, 12940 kPa, x1 = 0.8	312.28
563.15 K, 12970 kPa, x1 = 0.8	312.28
563.15 K, 13290 kPa, x1 = 0.5	385.56
563.15 K, 14460 kPa, x1 = 0.8	367.22
563.15 K, 16510 kPa, x1 = 0.5	463.66
563.15 K, 23620 kPa, x1 = 0.5	521.79
568.15 K, 9040 kPa, x1 = 0.2	67.66
573.15 K, 5420 kPa, x1 = 0.8	53.14
573.15 K, 6590 kPa, x1 = 0.5	55.92
573.15 K, 7820 kPa, x1 = 0.5	69.21
573.15 K, 8780 kPa, x1 = 0.5	84.36
573.15 K, 8990 kPa, x1 = 0.8	114.92
573.15 K, 10460 kPa, x1 = 0.5	117.35
573.15 K, 11580 kPa, x1 = 0.8	188.4
573.15 K, 12050 kPa, x1 = 0.5	171.15
573.15 K, 12840 kPa, x1 = 0.8	243.61
573.15 K, 13010 kPa, x1 = 0.5	234.43
573.15 K, 13190 kPa, x1 = 0.8	260.43
573.15 K, 13610 kPa, x1 = 0.5	293.62
573.15 K, 13720 kPa, x1 = 0.8	283.75
573.15 K, 14410 kPa, x1 = 0.8	306.79
573.15 K, 14490 kPa, x1 = 0.8	312.12
573.15 K, 15660 kPa, x1 = 0.5	385.34
573.15 K, 16440 kPa, x1 = 0.8	367.02
573.15 K, 16820 kPa, x1 = 0.5	419.39
573.15 K, 17060 kPa, x1 = 0.5	421.07
573.15 K, 17150 kPa, x1 = 0.8	382.31
573.15 K, 17210 kPa, x1 = 0.5	424.29
573.15 K, 18650 kPa, x1 = 0.8	405.32
573.15 K, 20120 kPa, x1 = 0.5	463.38
573.15 K, 21340 kPa, x1 = 0.8	439.21
573.15 K, 22500 kPa, x1 = 0.8	451.39
573.15 K, 28040 kPa, x1 = 0.5	521.47
573.15 K, 39960 kPa, x1 = 0.5	567.95
573.15 K, 44900 kPa, x1 = 0.5	580.76
577.15 K, 45760 kPa, x1 = 0.8	552.13
578.15 K, 23390 kPa, x1 = 0.8	445.43
578.15 K, 35170 kPa, x1 = 0.8	514.74
578.15 K, 38000 kPa, x1 = 0.5	555.01
593.15 K, 50760 kPa, x1 = 0.5	567.2
598.15 K, 5820 kPa, x1 = 0.8	53.08
598.15 K, 7080 kPa, x1 = 0.5	55.85
598.15 K, 8560 kPa, x1 = 0.5	69.13
598.15 K, 9720 kPa, x1 = 0.5	84.26
598.15 K, 10060 kPa, x1 = 0.8	114.78
598.15 K, 11840 kPa, x1 = 0.5	117.21
598.15 K, 12030 kPa, x1 = 0.2	90.05
598.15 K, 13600 kPa, x1 = 0.8	188.16
598.15 K, 14290 kPa, x1 = 0.2	138.08
598.15 K, 15290 kPa, x1 = 0.2	221.72
598.15 K, 15460 kPa, x1 = 0.2	286.74
